In ChEMBL document CHEMBL1201862, “PubChem BioAssay data set” (2004):
Active and inactive are the calls of the source.

Tests used:
[1] = test system: Streptococcus sp. 'group A'; assay: growth inhibition of control SK(-) GAS strain, dose response, counter-screen for streptokinase expression inhibitor project, luminescence, kanamycin, BacTiterGlo, confirmation (AID 1900); format: functional, organism-based
Streptokinase A = target: T1, Streptokinase A (Streptococcus pyogenes serotype M1, UniProt P10520); assay: S. pyogenes streptokinase expression inhibitors, potency, dose response, plasminogen activation absorbance, OD405 (AID 1914); format: functional, Streptococcus pyogenes M1 GAS;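 note: secreted streptokinase activity via plasminogen activation per viability signal from cell pellet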
T1 sequence (P10520 whole entry): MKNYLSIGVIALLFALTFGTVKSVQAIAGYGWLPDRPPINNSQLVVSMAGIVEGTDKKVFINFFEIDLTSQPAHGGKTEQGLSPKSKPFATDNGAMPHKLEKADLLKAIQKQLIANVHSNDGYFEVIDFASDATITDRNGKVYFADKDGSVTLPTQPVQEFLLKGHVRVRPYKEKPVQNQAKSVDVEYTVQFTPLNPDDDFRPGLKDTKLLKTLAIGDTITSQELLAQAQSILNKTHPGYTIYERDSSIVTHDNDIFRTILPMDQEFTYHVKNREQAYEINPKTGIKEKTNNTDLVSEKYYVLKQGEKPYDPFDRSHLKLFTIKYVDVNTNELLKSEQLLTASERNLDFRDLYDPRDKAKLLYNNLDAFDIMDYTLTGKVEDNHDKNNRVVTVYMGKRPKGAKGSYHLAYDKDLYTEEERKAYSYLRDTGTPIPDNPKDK

[2] = Counterscreen for inhibitors of Trypanosoma brucei methionyl tRNA synthetase (MetRS): Luminescence-based cell-based high throughput dose response assay to identify compounds that are cytotoxic to Jurkat human T lymphocyte cells.; format: functional
[3] = target: T2, Methionyl-tRNA synthetase, putative (Trypanosoma brucei brucei, UniProt Q38C91); format: functional, Trypanosoma brucei brucei strain 927/4 GUTat10.1
T2 sequence (Q38C91 whole entry): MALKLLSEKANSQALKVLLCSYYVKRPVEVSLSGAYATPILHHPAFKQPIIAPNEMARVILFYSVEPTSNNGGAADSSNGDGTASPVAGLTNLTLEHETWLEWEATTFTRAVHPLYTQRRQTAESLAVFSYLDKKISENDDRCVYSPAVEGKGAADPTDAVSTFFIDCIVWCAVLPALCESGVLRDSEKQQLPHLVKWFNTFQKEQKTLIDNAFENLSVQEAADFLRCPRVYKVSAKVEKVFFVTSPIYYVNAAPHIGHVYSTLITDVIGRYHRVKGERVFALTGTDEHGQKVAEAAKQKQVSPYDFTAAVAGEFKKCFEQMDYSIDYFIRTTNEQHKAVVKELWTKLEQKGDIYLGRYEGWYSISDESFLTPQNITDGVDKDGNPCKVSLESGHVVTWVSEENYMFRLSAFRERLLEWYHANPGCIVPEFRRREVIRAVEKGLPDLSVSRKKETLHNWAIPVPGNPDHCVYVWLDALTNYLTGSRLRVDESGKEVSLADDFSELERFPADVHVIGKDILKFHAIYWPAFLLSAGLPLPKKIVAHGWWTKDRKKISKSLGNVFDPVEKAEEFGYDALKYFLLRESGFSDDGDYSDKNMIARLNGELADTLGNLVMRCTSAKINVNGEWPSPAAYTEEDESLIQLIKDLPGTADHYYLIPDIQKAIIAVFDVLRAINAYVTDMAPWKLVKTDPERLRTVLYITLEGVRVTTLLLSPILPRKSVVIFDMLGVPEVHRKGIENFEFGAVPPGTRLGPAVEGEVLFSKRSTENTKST

[4] = Late stage counterscreen for inhibitors of Trypanosoma brucei methionyl tRNA synthetase (MetRS): Luminescence-based cell-based high throughput dose response assay to identify compounds that are cytotoxic to Jurkat human T lymphocyte cells.; format: functional
[5] = target: T2, Methionyl-tRNA synthetase, putative; format: functional, Trypanosoma brucei brucei strain 927/4 GUTat10.1; remark: listed apart in the source
Streptococcus = assay: Group A Streptococcus viability loss, dose response, counter-screen for streptokinase expression inhibitor project, luminescence, BacTiterGlo (AID 1915); format: functional, organism-based;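 note: potency for reduction of bacterial viability or growth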
[6] = target: T3, Oxysterols receptor LXR-beta (Homo sapiens, UniProt P55055); assay: LXR agonists, Gal4 luciferase reporter, dose response, counter-screen for ssDAF-12 agonist project, cell-based, luminescence, HEK293, S. stercoralis campaign (AID 720737); format: functional; conditions: read-out: IC50 (the source's name)
T3 sequence (P55055 whole entry): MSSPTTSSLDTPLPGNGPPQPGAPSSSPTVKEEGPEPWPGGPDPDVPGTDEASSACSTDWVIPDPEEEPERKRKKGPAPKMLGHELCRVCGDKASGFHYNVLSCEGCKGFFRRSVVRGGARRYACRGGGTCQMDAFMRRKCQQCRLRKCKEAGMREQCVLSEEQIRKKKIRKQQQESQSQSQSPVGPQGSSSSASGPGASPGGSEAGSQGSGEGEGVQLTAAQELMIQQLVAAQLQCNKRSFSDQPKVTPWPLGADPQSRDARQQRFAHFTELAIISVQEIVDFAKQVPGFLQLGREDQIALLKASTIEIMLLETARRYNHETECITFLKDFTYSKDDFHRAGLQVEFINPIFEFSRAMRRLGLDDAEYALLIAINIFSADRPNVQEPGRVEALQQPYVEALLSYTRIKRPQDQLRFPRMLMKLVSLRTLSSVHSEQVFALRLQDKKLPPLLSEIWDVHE

[7] = Luminescence-based cell-based high throughput dose response assay to identify activators of the DAF-12 from the parasite S. stercoralis (ssDAF-12).; format: functional
[8] = target: Sphingosine 1-phosphate receptor 2 (Homo sapiens, UniProt O95136); assay: Dose Response Cell Based Assay for Agonists of the S1P2 Receptor. [Related pubchem assays: 729, 736, 843 ]; format: functional
[9] = inhibitors of Vif binding to APOBEC3G peptide, primary screen, biochemical, TR-FRET, GST-Vif 1-94, biotin-A3G peptide, dose response retest (AID 1117319); format: functional;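 note: TR-FRET signal of purified GST-Vif binding a biotinylated A3G peptide; inhibitors lower the FRET signal by blocking Vif and A3G binding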
[10] = target: T4, Tyrosine-protein phosphatase non-receptor type 7 (Homo sapiens, UniProt P35236); assay: inhibitors of human HePTP phosphatase, […], biochemical, absorbance, leukemia target (AID 521); format: functional
T4 sequence (P35236 whole entry): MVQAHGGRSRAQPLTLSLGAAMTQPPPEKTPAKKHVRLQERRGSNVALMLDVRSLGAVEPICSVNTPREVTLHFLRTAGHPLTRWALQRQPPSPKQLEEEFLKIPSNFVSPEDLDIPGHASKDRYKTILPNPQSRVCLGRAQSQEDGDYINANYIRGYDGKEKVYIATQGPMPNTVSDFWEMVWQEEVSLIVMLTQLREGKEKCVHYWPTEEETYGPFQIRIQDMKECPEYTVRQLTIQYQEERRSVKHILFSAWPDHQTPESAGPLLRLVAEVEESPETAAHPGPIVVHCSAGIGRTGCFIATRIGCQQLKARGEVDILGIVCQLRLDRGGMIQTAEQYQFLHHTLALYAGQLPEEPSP

[11] = THP-1 cell cytotoxicity, dose response, cytotoxicity control for Vif-APOBEC3G degradation inhibitor project, THP-1 cells (AID 1117359); format: functional; conditions: Human immunodeficiency virus 1, THP-1
Protein Tat = target: T5, Protein Tat (Human immunodeficiency virus type 1 group M subtype B (isolate HXB2)(HIV-1), UniProt P04608); format: functional;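 note: tat binding to TAR RNA read out by fluorescence polarization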
T5 sequence (P04608 whole entry): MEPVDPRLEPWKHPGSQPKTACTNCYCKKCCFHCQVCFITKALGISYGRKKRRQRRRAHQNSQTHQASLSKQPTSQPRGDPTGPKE

[12] = target: T6, Mannose-6-phosphate isomerase (Homo sapiens, UniProt P34949); assay: inhibitors of human PMI, primary screen, biochemical, fluorescence intensity, coupled assay (AID 1209)
T6 sequence (P34949 whole entry): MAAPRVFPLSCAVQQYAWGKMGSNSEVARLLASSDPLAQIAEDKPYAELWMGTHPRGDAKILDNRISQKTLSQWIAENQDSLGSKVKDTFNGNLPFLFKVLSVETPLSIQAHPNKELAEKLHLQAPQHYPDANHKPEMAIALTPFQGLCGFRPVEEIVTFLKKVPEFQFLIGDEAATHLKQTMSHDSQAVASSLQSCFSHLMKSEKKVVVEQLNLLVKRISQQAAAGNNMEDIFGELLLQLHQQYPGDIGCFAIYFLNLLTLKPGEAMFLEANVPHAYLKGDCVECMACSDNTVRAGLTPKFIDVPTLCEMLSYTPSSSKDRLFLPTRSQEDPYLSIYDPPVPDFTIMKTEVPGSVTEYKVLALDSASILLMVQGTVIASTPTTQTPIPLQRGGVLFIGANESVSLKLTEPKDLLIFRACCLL

[13] = target: T6, Mannose-6-phosphate isomerase; assay: human PMI inhibitors, high substrate, primary screen, biochemical, fluorescence intensity, high mannose 6-phosphate (AID 1220)

Sphingosine 1-phosphate receptor 2, sequence (O95136 whole entry): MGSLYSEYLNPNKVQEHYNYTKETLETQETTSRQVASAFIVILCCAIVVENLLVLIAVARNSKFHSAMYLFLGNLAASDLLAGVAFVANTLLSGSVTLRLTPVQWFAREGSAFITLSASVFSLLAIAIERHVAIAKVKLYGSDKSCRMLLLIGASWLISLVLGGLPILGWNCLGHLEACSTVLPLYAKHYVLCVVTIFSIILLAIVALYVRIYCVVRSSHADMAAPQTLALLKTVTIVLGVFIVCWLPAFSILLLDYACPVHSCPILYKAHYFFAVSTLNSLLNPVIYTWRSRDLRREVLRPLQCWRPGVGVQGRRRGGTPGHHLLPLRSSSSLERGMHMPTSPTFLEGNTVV

In the case of `O=C1CC(N(CCc2ccccc2)C(=S)Nc2ccccc2)C(=O)N1c1ccc(Br)cc1` (centres undefined), the EC50 [1] is reported as 2.87 µM (active), the EC50 (Streptokinase A) is reported as 2.67 µM (active) and the IC50 [2] is reported as 25.3 µM (inactive). The IC50 [3] was 0.743 µM (active), the IC50 [4] was 15.4 µM (inactive) and the IC50 [5] was 0.46 µM (active). For the same compound, the EC50 (Streptococcus) was 18.3 µM (active).

In the case of `Cc1cc(NC(=S)NC(=O)/C=C/c2ccc(S(=O)(=O)N3CCOCC3)cc2)ccc1Br`, the EC50 [6] is reported as > 67.5 µM (inactive) and the IC50 [7] is reported as > 67.5 µM (inactive).

With `COc1ccccc1CNC(=O)c1c(N)n(CCCN2CCOCC2)c2nc3ccccc3nc12` the EC50 [8] was 3.9 µM (active).

With `C[C@@H]1NC(=O)[C@H](CCC(N)=O)NC(=O)c2cc([N+](=O)[O-])cc(I)c2NCCC[C@@H](C(N)=O)NC1=O` the IC50 [9] was > 100 µM (active).

For `Oc1ccccc1C1NN=C(c2ccccc2)S1` (centres undefined), the EC50 [6] was > 67.5 µM (inactive) and the IC50 [7] was > 67.5 µM (inactive).

With `CCc1nnc(NC(=O)CSc2nnc(-c3ccoc3C)n2CC(C)C)s1` the IC50 [10] was > 100 µM (not active).

In the case of `COc1cc(CNc2ccc3[nH]c(O)nc3c2)cc(Cl)c1OCC(=O)NC(C)(C)C`, the IC50 [9] is reported as > 51.4 µM (active), the CC50 [11] is reported as > 40 µM (active) and the IC50 (Protein Tat) is reported as 50.5 µM (inconclusive). For the same compound, the IC50 [12] was > 50 µM (not active) and the IC50 [13] was > 50 µM (not active).
